Measured values reported in EP3708565A1, “PYRIMIDINYLOXYPHENYLAMIDINES AND THE USE THEREOF AS FUNGICIDES” (Bayer AG, priority 2020, dated 2020).

Experiments:
[1] = LogP measurement by HPLC on reversed phase columns (EEC directive 79/831 Annex V.A8); format: physicochemical
Protocol: If more than one LogP value is available within the same method, all the values are given and separated by "+".
Lambda-max-values were determined using UV-spectra from 200 nm to 400 nm and the peak values of the chromatographic signals.

Sphaerotheca fuliginea = assay: in vivo preventive test on Sphaerotheca fuliginea (powdery mildew on cucurbits); conditions: Podosphaera fuliginea, 192 h; 500 ppm of active ingredient; young gherkin plants sprayed, inoculated after 24 hours, evaluated 8 days after the inoculation; read-out: efficacy
Protocol: Example: in vivo preventive test on Sphaerotheca fuliginea (powdery mildew on cucurbits)
(§1) The active ingredients were made soluble and homogenized in a mixture of Dimethyl sulfoxide/Acetone/ /Tween® 80 and then diluted in water to the desired concentration.
The young plants of gherkin were treated by spraying the active ingredient prepared as described above. Control plants were treated only with an aqueous solution of Acetone/Dimethyl sulfoxide/ […].
After 24 hours, the plants were contaminated by spraying the leaves with an aqueous suspension of Sphaerotheca fuliginea spores. The contaminated gherkin plants were incubated for 8 days at 20°C and at 70-80% relative humidity.
The test was evaluated 8 days after the inoculation. 0% means an efficacy which corresponds to that of the control plants while an efficacy of 100% means that no disease was observed.

Puccinia recondita = assay: in vivo preventive test on Puccinia recondita (brown rust on wheat); conditions: for pest or weed control at 500 ppm: Puccinia recondita, 264 h, 500 ppm of active ingredient, young wheat plants sprayed, inoculated after 24 hours, evaluated 11 days after the inoculation, read-out: efficacy
Protocol: Example: in vivo preventive test on Puccinia recondita (brown rust on wheat)
as §1
The young plants of wheat were treated by spraying the active ingredient prepared as described above. Control plants were treated only with an aqueous solution of Acetone/Dimethyl sulfoxide/ Tween® 80.
After 24 hours, the plants were contaminated by spraying the leaves with an aqueous suspension of Puccinia recondita spores. The contaminated wheat plants were incubated for 24 hours at 20°C and at 100% relative humidity and then for 10 days at 20°C and at 70-80% relative humidity.
The test was evaluated 11 days after the inoculation. 0% means an efficacy which corresponds to that of the control plants while an efficacy of 100% means that no disease was observed.

Phakospora pachyrhizi = assay: in vivo preventive test on Phakospora pachyrhizi (soybean rust); conditions: for pest or weed control at 500 ppm: Glycine max, 288 h, 500 ppm of active ingredient, young soybean plants sprayed, inoculated after 24 hours, evaluated 12 days after the inoculation, read-out: efficacy
Protocol: Example: in vivo preventive test on Phakospora pachyrhizi (soybean rust)
as §1
The young plants of soybean were treated by spraying the active ingredient prepared as described above. Control plants were treated only with an aqueous solution of Acetone/Dimethyl sulfoxide/ […].
After 24 hours, the plants were contaminated by spraying the leaves with an aqueous suspension of Phakosporapachyrhizi spores. The contaminated soybean plants were incubated for 24 hours at 24°C and at 100% relative humidity and then for 11 days at 24°C and at 70-80% relative humidity.
The test was evaluated 12 days after the inoculation. 0% means an efficacy which corresponds to that of the control plants while an efficacy of 100% means that no disease was observed.

[2] = reversed phase HPLC column, method [a]: LC-UV, acidic range, 0.1% formic acid in water and acetonitrile as eluent
[3] = reversed phase HPLC column, method [b]: LC-UV, neutral range, 0.001 molar ammonium acetate solution in water and acetonitrile as eluent

Row | chromatographic logP [1, 2] | chromatographic logP [1, 3] | chromatographic logP ([1]; method [a]: LC-UV, acidic range, 0.1% formic acid in water and acetonitrile as eluent) | chromatographic logP ([1]; method [b]: LC-UV, neutral range, 0.001 molar ammonium acetate solution in water and acetonitrile as eluent) | SMILES | pest or weed control at 500 ppm (Sphaerotheca fuliginea) [%] | pest or weed control at 500 ppm (Puccinia recondita) [%] | pest or weed control at 500 ppm (Phakospora pachyrhizi) [%] | efficacy (Puccinia recondita; 500 ppm) | efficacy (Phakospora pachyrhizi; 500 ppm)
1 | 1.87 |  |  |  | CCC(C)Sc1nccc(Oc2cc(C)c(N=CN(C)CC)cc2C)n1 (racemic) [I.004, N'-[2,5-dimethyl-4-[2-[rac-(2R)-butan-2-yl]sulfanylpyrimidin-4-yl]oxyphenyl]-N-ethyl-N-methylmethanimidamide] | ≥ 70 | ≥ 70 | ≥ 70 |  | 
2 | 1.72 | 4.95 |  |  | CCN(C)C=Nc1cc(Br)c(Oc2ccnc(SC(C)(C)C)n2)cc1C [I.001, N'-[5-bromo-4-(2-tert-butylsulfanylpyrimidin-4-yl)oxy-2-methylphenyl]-N-ethyl-N-methyl-methanimidamide] | ≥ 70 | ≥ 70 | ≥ 70 |  | 
3 | 1.9 | 5.66 |  |  | CCN(C)C=Nc1cc(C)c(Oc2ccnc(SCCC(C)C)n2)cc1C [I.002, N'-[2,5-dimethyl-4-[2-(3-methylbutylsulfanyl)pyrimidin-4-yl]oxyphenyl]-N-ethyl-N-methyl-methanimidamide] | ≥ 70 | ≥ 70 | ≥ 70 |  | 
4 | 1.63 | 4.89 |  |  | CCN(C)C=Nc1cc(C)c(Oc2ccnc(CCC(C)(C)C)n2)cc1C [I.003, N'-[4-[2-(3,3-dimethylbutyl)pyrimidin-4-yl]oxy-2,5-dimethylphenyl]-N-ethyl-N-methylmethan-imidamide] | ≥ 70 | ≥ 70 | ≥ 70 |  | 
5 | 1.58 | 4.66 |  |  | CCN(C)C=Nc1cc(Br)c(Oc2ccnc(SCC(F)(F)F)n2)cc1C [I.005, N'-[5-bromo-2-methyl-4-[2-(2,2,2-trifluoroethylsulfanyl)pyrimidin-4-yl]oxyphenyl]-N-ethyl-N-methylmethanimidamide] | ≥ 70 | ≥ 70 | ≥ 70 |  | 
6 | 1.53 | 4.19 |  |  | CCN(C)C=Nc1cc(C)c(Oc2ccnc(SCC(F)(F)F)n2)cc1Cl [I.006, N'-[2-chloro-5-methyl-4-[2-(2,2,2-trifluoroethylsulfanyl)pyrimidin-4-yl]oxyphenyl]-N-ethyl-N-methylmethanimidamide] | ≥ 70 | ≥ 70 | ≥ 70 |  | 
7 | 1.81 | 5.25 |  |  | CCN(C)C=Nc1cc(Br)c(Oc2ccnc(SCC(C)C)n2)cc1C [I.007, N'-[5-bromo-2-methyl-4-[2-(2-methylpropylsulfanyl)pyrimidin-4-yl]oxyphenyl]-N-ethyl-N-methylmethanimidamide] | ≥ 70 | ≥ 70 | ≥ 70 |  | 
8 | 1.6 |  |  |  | CCN(C)C=Nc1cc(C)c(Oc2ccnc(Sc3ccccc3F)n2)cc1C [I.008, N-ethyl-N'-[4-[2-(2-fluorophenyl)sulfanylpyrimidin-4-yl]oxy-2,5-dimethylphenyl]-N-methyl-methanimidamide] | ≥ 70 | ≥ 70 | ≥ 70 |  | 
9 | 1.66 |  |  |  | CCN(C)C=Nc1cc(C)c(Oc2ccnc(Sc3cccc(F)c3)n2)cc1C [I.009, N-ethyl-N'-[4-[2-(3-fluorophenyl)sulfanylpyrimidin-4-yl]oxy-2,5-dimethylphenyl]-N-methyl-methanimidamide] | ≥ 70 | ≥ 70 | ≥ 70 |  | 
10 | 1.6 |  |  |  | CCN(C)C=Nc1cc(C)c(Oc2ccnc(Sc3ccc(F)cc3)n2)cc1C [I.010, N-ethyl-N'-[4-[2-(4-fluorophenyl)sulfanylpyrimidin-4-yl]oxy-2,5-dimethylphenyl]-N-methyl-methanimidamide] | ≥ 70 | ≥ 70 | ≥ 70 |  | 
11 | 1.86 |  |  |  | CCN(C)C=Nc1cc(C)c(Oc2ccnc(SC3CCCCC3)n2)cc1C [I.011, N'-[4-(2-cyclohexylsulfanylpyrimidin-4-yl)oxy-2,5-dimethylphenyl]-N-ethyl-N-methylmethan-imidamide] | ≥ 70 | ≥ 70 | ≥ 70 |  | 
12 | 1.61 | 5.06 |  |  | CCN(C)C=Nc1cc(C)c(Oc2ccnc(SCC(C)C)n2)cc1C [I.026, N'-[2,5-dimethyl-4-[2-(2-methylpropylsulfanyl)pyrimidin-4-yl]oxyphenyl]-N-ethyl-N-methyl-methanimidamide] |  | ≥ 70 | ≥ 70 |  | 
13 | 1.46 | 4.56 |  |  | CCN(C)C=Nc1cc(C)c(Oc2ccnc(C(C)(C)C)n2)cc1C [I.032, N'-[4-(2-tert-butylpyrimidin-4-yl)oxy-2,5-dimethylphenyl]-N-ethyl-N-methylmethanimidamide] |  | ≥ 70 | ≥ 70 |  | 
14 | 1.93 |  |  |  | CCN(C)C=Nc1cc(C(F)(F)F)c(Oc2ccnc(SCC(C)C)n2)cc1C [I.035, N-ethyl-N-methyl-N'-[2-methyl-4-[2-(2-methylpropylsulfanyl)pyrimidin-4-yl]oxy-5-(trifluoromethyl)phenyl]methanimidamide] |  | ≥ 70 | ≥ 70 |  | 
15 |  |  | 1.58 | 4.93 | CCN(C)C=Nc1cc(Br)c(Oc2ccnc(C(C)(C)C)n2)cc1C [I.038, N'-[5-bromo-4-(2-tert-butylpyrimidin-4-yl)oxy-2-methylphenyl]-N-ethyl-N-methylmethanimid-amide] |  |  |  | at least 70% | at least 70%
16 | 1.52 | 4.35 |  |  | CCN(C)C=Nc1cc(C)c(Oc2ccnc(SC(C)C)n2)cc1Cl [I.046, N'-[2-chloro-5-methyl-4-(2-propan-2-ylsulfanylpyrimidin-4-yl)oxyphenyl]-N-ethyl-N-methyl-methanimidamide] |  | ≥ 70 |  |  | 
17 | 1.13 |  |  |  | CCN(C)C=Nc1cc(C)c(Oc2ccnc(Sc3ccncc3)n2)cc1C [I.047, N'-[2,5-dimethyl-4-(2-pyridin-4-ylsulfanylpyrimidin-4-yl)oxyphenyl]-N-ethyl-N-methylmethan-imidamide] | ≥ 70 |  |  |  | 
18 | 1.72 | 4.77 |  |  | CCN(C)C=Nc1cc(C)c(Oc2ccnc(SCC(C)C)n2)cc1Cl [I.048, N'-[2-chloro-5-methyl-4-[2-(2-methylpropylsulfanyl)pyrimidin-4-yl]oxyphenyl]-N-ethyl-N-methylmethanimidamide] | ≥ 70 | ≥ 70 |  |  | 
19 | 1.6 | 4.5 |  |  | CCN(C)C=Nc1cc(C#N)c(Oc2ccnc(SCC(C)C)n2)cc1C [I.049, N'-[5-cyano-2-methyl-4-[2-(2-methylpropylsulfanyl)pyrimidin-4-yl]oxyphenyl]-N-ethyl-N-methylmethanimidamide] | ≥ 70 | ≥ 70 |  |  | 
20 | 1.44 | 4.16 |  |  | CCCSc1nccc(Oc2cc(C)c(N=CN(C)CC)cc2C#N)n1 [I.050, N'-[5-cyano-2-methyl-4-(2-propylsulfanylpyrimidin-4-yl)oxyphenyl]-N-ethyl-N-methylmethan-imidamide] | ≥ 70 | ≥ 70 |  |  | 
21 | 1.9 |  |  |  | CCN(C)C=Nc1cc(C(F)F)c(Oc2nc(SCC(C)C)ncc2C)cc1C [I.051, N'-[5-(difluoromethyl)-2-methyl-4-[5-methyl-2-(2-methylpropylsulfanyl)pyrimidin-4-yl]oxyphenyl]-N-ethyl-N-methylmethanimidamide] | ≥ 70 |  |  |  | 
